Assay results from ChEMBL document CHEMBL4393727, “Investigating 1,2,3,4,5,6-hexahydroazepino[4,3-b]indole as scaffold of butyrylcholinesterase-selective inhibitors with additional neuroprotective activities for Alzheimer's disease” (Eur J Med Chem, 2019).
Active and inactive are the calls of the source. The rule behind the calls is not given here.

Legend:
[1] = target: Acetylcholinesterase (Electrophorus electricus, UniProt O42275); experiment: Inhibition of electric eel AChE using acetylthiocholine iodide as substrate preincubated for 20 mins followed by substrate addition and measured upto 5 mins by Ellman's method
Sequence of Acetylcholinesterase (Electrophorus electricus, UniProt O42275) (O42275 whole entry): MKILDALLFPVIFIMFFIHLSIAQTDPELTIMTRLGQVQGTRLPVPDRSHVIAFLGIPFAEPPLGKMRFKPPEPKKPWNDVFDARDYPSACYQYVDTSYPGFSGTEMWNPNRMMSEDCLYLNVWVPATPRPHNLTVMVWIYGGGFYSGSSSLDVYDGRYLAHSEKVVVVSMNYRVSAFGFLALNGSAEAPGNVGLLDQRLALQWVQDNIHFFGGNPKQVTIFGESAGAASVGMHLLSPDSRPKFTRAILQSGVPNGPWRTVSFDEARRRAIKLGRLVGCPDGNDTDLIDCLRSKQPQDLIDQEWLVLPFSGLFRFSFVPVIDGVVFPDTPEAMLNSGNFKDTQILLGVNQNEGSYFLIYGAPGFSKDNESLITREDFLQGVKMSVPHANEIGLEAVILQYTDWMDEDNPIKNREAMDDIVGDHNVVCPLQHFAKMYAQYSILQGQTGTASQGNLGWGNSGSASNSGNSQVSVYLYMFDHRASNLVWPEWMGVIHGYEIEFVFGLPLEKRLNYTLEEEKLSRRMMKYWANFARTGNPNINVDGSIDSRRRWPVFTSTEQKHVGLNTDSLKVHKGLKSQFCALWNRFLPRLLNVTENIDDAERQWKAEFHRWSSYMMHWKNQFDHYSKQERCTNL

[2] = target: T1, Cholinesterase (Equus caballus, UniProt P81908); experiment: Inhibition of equine serum BChE using butyrylthiocholine as substrate preincubated for 20 mins followed by substrate addition and measured upto 5 mins by Ellman's method
T1 sequence (P81908 whole entry): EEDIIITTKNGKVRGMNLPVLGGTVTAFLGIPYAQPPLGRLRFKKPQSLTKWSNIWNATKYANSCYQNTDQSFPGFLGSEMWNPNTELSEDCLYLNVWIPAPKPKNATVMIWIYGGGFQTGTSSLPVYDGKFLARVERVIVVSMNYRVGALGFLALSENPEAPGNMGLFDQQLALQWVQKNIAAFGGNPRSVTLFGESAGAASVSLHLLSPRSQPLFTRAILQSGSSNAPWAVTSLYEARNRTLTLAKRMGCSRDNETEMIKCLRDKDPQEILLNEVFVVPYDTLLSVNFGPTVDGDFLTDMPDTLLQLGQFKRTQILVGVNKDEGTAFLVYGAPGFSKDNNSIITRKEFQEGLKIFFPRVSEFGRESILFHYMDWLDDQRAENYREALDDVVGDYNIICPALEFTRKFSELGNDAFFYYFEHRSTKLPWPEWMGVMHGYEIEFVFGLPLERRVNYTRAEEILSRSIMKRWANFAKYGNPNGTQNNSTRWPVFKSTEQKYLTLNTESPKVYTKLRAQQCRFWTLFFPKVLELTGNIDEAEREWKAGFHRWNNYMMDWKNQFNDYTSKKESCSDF

[3] = target: Amyloid-beta precursor protein (Homo sapiens) (UniProt P05067); experiment: Inhibition of HFIP treated amyloid beta (1 to 40) (unknown origin) self-induced aggregation at 100 uM measured after 2 hrs by Thioflavin T fluorescence assay relative to control
Sequence of Amyloid-beta precursor protein (Homo sapiens) (P05067 whole entry): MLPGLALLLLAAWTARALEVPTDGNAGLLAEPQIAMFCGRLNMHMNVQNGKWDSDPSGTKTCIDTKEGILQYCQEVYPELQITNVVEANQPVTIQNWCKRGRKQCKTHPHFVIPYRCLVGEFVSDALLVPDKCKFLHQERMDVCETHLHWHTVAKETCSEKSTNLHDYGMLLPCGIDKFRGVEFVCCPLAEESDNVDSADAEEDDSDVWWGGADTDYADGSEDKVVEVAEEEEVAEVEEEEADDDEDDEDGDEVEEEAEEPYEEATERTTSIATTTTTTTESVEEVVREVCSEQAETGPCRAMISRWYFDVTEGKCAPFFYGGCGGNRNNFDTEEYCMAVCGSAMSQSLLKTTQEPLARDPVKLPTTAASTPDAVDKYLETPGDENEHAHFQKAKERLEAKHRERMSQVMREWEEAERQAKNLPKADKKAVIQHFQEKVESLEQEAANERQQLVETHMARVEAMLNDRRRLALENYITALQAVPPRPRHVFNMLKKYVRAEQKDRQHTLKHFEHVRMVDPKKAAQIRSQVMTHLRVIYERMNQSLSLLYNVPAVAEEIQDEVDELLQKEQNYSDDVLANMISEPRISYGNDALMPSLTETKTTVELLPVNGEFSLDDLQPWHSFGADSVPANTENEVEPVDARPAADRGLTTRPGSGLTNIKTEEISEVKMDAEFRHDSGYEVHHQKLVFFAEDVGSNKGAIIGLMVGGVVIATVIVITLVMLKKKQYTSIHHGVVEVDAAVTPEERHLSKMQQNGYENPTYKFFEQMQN

[4] = Aqueous solubility of the compound in phosphate buffered saline at pH 7.4 by reverse phase HPLC analysis; assay type: physicochemical
[5] = Selectivity index, ratio of IC50 for electric eel AChE to IC50 for equine serum BuChE
[6] = target: Amyloid-beta precursor protein (Homo sapiens) (UniProt P05067); experiment: Inhibition of HFIP treated amyloid beta (1 to 40) (unknown origin) self-induced aggregation at 100 uM measured after 2 hrs by Thioflavin T fluorescence assay
[7] = test system: SH-SY5Y; experiment: Neuroprotective activity against H2O2-induced oxidative stress in human SH-SY5Y cells assessed as reduction in ROS generation at 100 uM preincubated for 1 hr followed by DCFH-DA addition for 30 mins and subsequent co-treatment with compound and H2O2 for 30 min by fluorescence assay; assay type: functional, cell-based
[8] = test system: SH-SY5Y; experiment: Cytotoxicity in human SH-SY5Y cells assessed as decrease in cell viability at 5 uM measured after 48 hrs by MTT assay relative to control; assay type: cell-based
[9] = test system: SH-SY5Y; experiment: Neuroprotective activity against H2O2-induced oxidative stress in human SH-SY5Y cells assessed as reduction in ROS generation preincubated for 1 hr followed by DCFH-DA addition for 30 mins and subsequent co-treatment with compound and H2O2 for 30 min by fluorescence assay; assay type: functional, cell-based
[10] = test system: SH-SY5Y; experiment: Neuroprotection activity against amyloid beta (1 to 42)-induced toxicity in human SH-SY5Y cells assessed as recovery of viability at 5 uM measured after 24 hrs by MTT assay relative to control; assay type: functional
[11] = target: Cholinesterase (Homo sapiens, UniProt P06276); experiment: Inhibition of human BChE using butyrylthiocholine as substrate preincubated for 20 mins followed by substrate addition and measured upto 5 mins by Ellman's method
Sequence of Cholinesterase (Homo sapiens, UniProt P06276) (P06276 whole entry): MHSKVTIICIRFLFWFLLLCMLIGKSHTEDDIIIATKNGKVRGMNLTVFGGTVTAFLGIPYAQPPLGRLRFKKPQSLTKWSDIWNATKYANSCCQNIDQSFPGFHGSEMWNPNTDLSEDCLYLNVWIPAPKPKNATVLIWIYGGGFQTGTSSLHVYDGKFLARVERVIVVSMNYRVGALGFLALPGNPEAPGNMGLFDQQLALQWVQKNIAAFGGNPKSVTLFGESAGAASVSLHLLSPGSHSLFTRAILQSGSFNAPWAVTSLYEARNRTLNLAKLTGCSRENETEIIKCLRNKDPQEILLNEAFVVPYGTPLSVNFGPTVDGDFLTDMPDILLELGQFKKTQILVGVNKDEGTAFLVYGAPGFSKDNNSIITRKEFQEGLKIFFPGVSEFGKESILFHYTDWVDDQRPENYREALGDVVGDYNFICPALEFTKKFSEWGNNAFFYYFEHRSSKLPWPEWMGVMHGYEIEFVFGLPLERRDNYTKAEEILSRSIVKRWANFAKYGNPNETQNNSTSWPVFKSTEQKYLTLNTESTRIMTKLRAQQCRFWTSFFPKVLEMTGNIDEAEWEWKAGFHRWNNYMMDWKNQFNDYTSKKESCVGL

[12] = target: Acetylcholinesterase (Homo sapiens, UniProt P22303); experiment: Inhibition of human AChE using acetylthiocholine iodide as substrate preincubated for 20 mins followed by substrate addition and measured upto 5 mins by Ellman's method
Sequence of Acetylcholinesterase (Homo sapiens, UniProt P22303) (P22303 whole entry): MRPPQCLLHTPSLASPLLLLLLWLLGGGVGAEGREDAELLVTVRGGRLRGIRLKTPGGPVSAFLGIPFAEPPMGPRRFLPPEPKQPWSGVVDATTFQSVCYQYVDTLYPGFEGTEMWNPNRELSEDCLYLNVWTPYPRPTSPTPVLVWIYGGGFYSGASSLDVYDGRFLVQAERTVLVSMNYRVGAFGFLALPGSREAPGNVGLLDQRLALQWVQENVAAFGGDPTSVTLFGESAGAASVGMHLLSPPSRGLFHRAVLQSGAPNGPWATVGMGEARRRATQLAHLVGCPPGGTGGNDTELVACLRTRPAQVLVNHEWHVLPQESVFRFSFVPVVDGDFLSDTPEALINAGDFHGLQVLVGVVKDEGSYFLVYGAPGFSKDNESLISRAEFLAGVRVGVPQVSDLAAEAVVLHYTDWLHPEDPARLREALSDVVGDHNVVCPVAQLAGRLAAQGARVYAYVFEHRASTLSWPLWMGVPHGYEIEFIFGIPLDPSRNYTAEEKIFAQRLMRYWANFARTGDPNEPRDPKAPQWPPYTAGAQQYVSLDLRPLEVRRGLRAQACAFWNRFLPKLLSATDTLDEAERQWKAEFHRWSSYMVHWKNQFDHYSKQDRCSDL

[13] = test system: SH-SY5Y; experiment: Neuroprotection activity against amyloid beta (1 to 42)-induced cytotoxicity in human SH-SY5Y cells assessed as recovery of viability at 5 uM by MTT assay; assay type: functional, cell-based; conditions: TDE = time-dependent effect
[14] = target: T1, Cholinesterase; experiment: Mixed type inhibition of equine serum BChE assessed as Ki using butyrylthiocholine as substrate preincubated for 20 mins followed by substrate addition and measured upto 5 mins by Ellman's method based Lineweaver-Burk plot analysis
[15] = Selectivity index, ratio of IC50 for electric eel AChE to IC50 for human BuChE
[16] = test system: SH-SY5Y; experiment: Neuroprotection activity against amyloid beta (1 to 42)-induced cytotoxicity in human SH-SY5Y cells assessed as recovery of viability at 5 uM measured after 48 hrs by MTT assay relative to control; assay type: functional

Question: For `c1ccc2c3c([nH]c2c1)CCCNC3`, which IC50 [1] is on record?
Answer: 70 µM

Question: What about the IC50 [2] of the same compound?
Answer: 20 µM

Question: What does the source list for `Fc1ccc(CN2CCCc3[nH]c4ccc(F)cc4c3C2)cc1`?
Answer: IC50 [1]: 4.1 µM; IC50 [2]: 2.9 µM

Question: With `CN1CCCc2[nH]c3ccccc3c2C1` as the compound, how does the IC50 [1] read?
Answer: 7.1 µM

Question: And the IC50 [2]?
Answer: 25 µM

Question: With `Cc1ccc2[nH]c3c(c2c1)CN(C)CCC3` as the compound, how does the IC50 [1] read?
Answer: 25 µM

Question: What about the IC50 [2] of the same compound?
Answer: 7.1 µM

Question: Which results are given for `Cc1ccc2[nH]c3c(c2c1)CNCCC3`?
Answer: IC50 [1]: 45 µM; IC50 [2]: 8 µM

Question: With `c1ccc(CN2CCCc3[nH]c4ccccc4c3C2)cc1` as the compound, how does the IC50 [1] read?
Answer: 8.7 µM

Question: What about the IC50 [2] of the same compound?
Answer: 2 µM

Question: What about the inhibition [3] of the same compound?
Answer: 38 to 54%

Question: What does the source list for `Cl.c1ccc(CCCN2CCCc3[nH]c4ccccc4c3C2)cc1`?
Answer: solubility [4]: > 1000 µM; IC50 [1]: 20 µM; IC50 [2]: 0.28 µM; inhibition [3]: 38 to 54%; Ratio IC50 [5]: 10 to 100

Question: What does the source list for `Cn1c2c(c3ccccc31)CN(CCc1ccccc1)CCC2`?
Answer: IC50 [1]: 12 µM; IC50 [2]: 0.86 µM; inhibition [3]: 38 to 54%; Ratio IC50 [5]: 10 to 100

Question: With `O=C(c1ccccc1)N1CCCc2[nH]c3ccc(F)cc3c2C1` as the compound, how does the IC50 [1] read?
Answer: 10.6 µM

Question: And the IC50 [2]?
Answer: 6 µM

Question: Which results are given for `Fc1ccc(CN2CCCc3[nH]c4ccccc4c3C2)cc1`?
Answer: IC50 [1]: 12 µM; IC50 [2]: 1.2 µM; Ratio IC50 [5]: 10

Question: For `Cc1ccc2[nH]c3c(c2c1)CN(Cc1ccccc1)CCC3`, which IC50 [1] is on record?
Answer: 6.95 µM

Question: What about the IC50 [2] of the same compound?
Answer: 1.2 µM

Question: With `O=c1c(O)c(-c2ccc(O)c(O)c2)oc2cc(O)cc(O)c12` as the compound, how does the inhibition [6] read?
Answer: Active

Question: And the Activity [7]?
Answer: Active

Question: For `Fc1ccc2[nH]c3c(c2c1)CNCCC3`, which IC50 [1] is on record?
Answer: 16 µM

Question: What about the IC50 [2] of the same compound?
Answer: 4.3 µM

Question: Which IC50 [1] does the source give for `Fc1ccc2[nH]c3c(c2c1)CCCN(Cc1ccccc1)C3` here?
Answer: 10.7 µM

Question: What about the IC50 [2] of the same compound?
Answer: 3.4 µM

Question: What does the source list for `CCN(CC)Cc1ccc(CN2CCCc3[nH]c4ccc(F)cc4c3C2)cc1`?
Answer: IC50 [1]: 4.8 µM; IC50 [2]: 1.4 µM

Question: Which IC50 [1] does the source give for `Fc1ccc2[nH]c3c(c2c1)CN(Cc1ccc(CN2CCCC2)cc1)CCC3` here?
Answer: 7.9 µM

Question: And the IC50 [2]?
Answer: 4.3 µM

Question: With `Cl.c1ccc(CCN2CCCc3[nH]c4ccccc4c3C2)cc1` as the compound, how does the solubility [4] read?
Answer: > 1000 µM

Question: And the IC50 [1]?
Answer: 9 µM

Question: And the IC50 [2]?
Answer: 0.7 µM

Question: And the inhibition [3]?
Answer: 38 to 54%

Question: And the Ratio IC50 [5]?
Answer: 10 to 100

Question: With `Fc1ccc2[nH]c3c(c2c1)CN(Cc1ccccc1)CCC3` as the compound, how does the IC50 [1] read?
Answer: 4.96 µM

Question: And the IC50 [2]?
Answer: 2.13 µM

Question: Which Activity [8] does the source give for `Cl.c1ccc(CCCCN2CCCc3[nH]c4ccccc4c3C2)cc1` here?
Answer: 30%

Question: And the Activity [9]?
Answer: Dose-dependent effect

Question: And the IC50 [9]?
Answer: 10.1 µM

Question: What about the solubility [4] of the same compound?
Answer: > 1000 µM

Question: And the IC50 [1]?
Answer: 20 µM

Question: What about the Activity [10] of the same compound?
Answer: 35%

Question: What about the IC50 [11] of the same compound?
Answer: 0.199 µM

Question: What about the IC50 [2] of the same compound?
Answer: 0.17 µM

Question: What about the IC50 [12] of the same compound?
Answer: 20 µM

Question: What about the inhibition [3] of the same compound?
Answer: 38 to 54%

Question: And the Activity [13]?
Answer: Tde

Question: What about the Ratio IC50 [5] of the same compound?
Answer: > 100

Question: What about the Ki [14] of the same compound?
Answer: 0.098 µM

Question: What about the Ratio IC50 [15] of the same compound?
Answer: > 100

Question: What about the Activity [16] of the same compound?
Answer: 30%

Question: For `Cc1ccc(CN2CCCc3[nH]c4ccccc4c3C2)cc1`, which IC50 [1] is on record?
Answer: 10 µM

Question: And the IC50 [2]?
Answer: 0.95 µM

Question: And the Ratio IC50 [5]?
Answer: 10
